ChEMBL document CHEMBL6134872, “Efficacy and Toxicity Analysis of Selective BET Bromodomain Inhibitors in Models of Inflammatory Liver Disease” (J Med Chem, 2025)
Active and inactive are the calls of the source. The rule behind the calls is not given here.

Assays:
[1] = Toxicity in mouse Megakaryocyte cells assessed as reduction in thrombocytopenia risk by CFU-MK Assay; type: cell-based
[2] = molecular target: T1, Bromodomain-containing protein 4 (Homo sapiens, UniProt O60885); test: Binding affinity to N-luc fused BRD4-BD1 in HEK293T cells assessed as apparent inhibition constant using NanoGlo substrate as substrate incubated for 2 hrs by NanoBRET assay; type: cell-based; conditions: read-out: Ki(app)
[3] = molecular target: T1, Bromodomain-containing protein 4; test: Inhibition of N-luc fused BRD4-BD1 in HEK293T cells using NanoGlo substrate as substrate incubated for 2 hrs by NanoBRET assay; type: cell-based
Mus musculus [4] = test: Antiinflammatory activity against LPS-induced C57BL/6J mouse model assessed as reduction in Ccl2 expression at 30 mg/kg, po preincubated for 1 hr followed by LPS stimulation and measured after 8 hrs by qPCR analysis; type: functional, organism-based; conditions: time 9.0 hrs
[5] = molecular target: T1, Bromodomain-containing protein 4; test: Induction of stabilization of BRD4-BD1 in human HEK293T cells at 0.5 to 5 uM incubated for 2 hrs by CESTA analysis; type: cell-based; conditions: dose 0.5-5 µM
[6] = AUC in male C57BL6 mouse plasma at 10 mg/kg, ip measured up to 24 hrs by LC-MS/MS analysis; type: ADME, organism-based; conditions: for AUC at 24 h: male, C57BL6, mouse, plasma
[7] = molecular target: T1, Bromodomain-containing protein 4; test: Inhibition of N-luc fused BRD4-BD1 in HEK293T cells using NanoGlo substrate as substrate at 10 uM incubated for 2 hrs by NanoBRET assay relative to control; type: cell-based
[8] = molecular target: T1, Bromodomain-containing protein 4; test: Inhibition of human his tagged BRD4-BD2 using Histone H4 peptide (1-21) K5/8/12/16Ac as substrate preincubated for 30 mins followed by addition of biotinylated peptide and measured after 30 mins by Alphascreen assay
[9] = Cytotoxicity against mouse TSEC cells at up to 200 uM measured after 4 hrs by XTT assay; type: toxicity, cell-based
TSEC [10] = test: Antiinflammatory activity against LPS induced mouse TSEC cells assessed as inhibition of CCL2 expression at 0.3 to 5 uM preincubated for 1 hr followed by LPS stimulation and measured after 4 hrs by qPCR analysis; type: functional, cell-based; conditions: dose 0.3-5 µM, time 5.0 hrs
[11] = Cmax in male C57BL6 mouse plasma at 10 mg/kg, ip measured up to 24 hrs by LC-MS/MS analysis; type: ADME, organism-based
Mus musculus [12] = test: Antiinflammatory activity against APAP-induced C57BL/6J mouse liver injury model assessed as reduction in Cxcl2 expression at 30 mg/kg, po preincubated for 1 hr followed by APAP stimulation and measured after 8 hrs by qPCR analysis; type: functional, organism-based; conditions: time 9.0 hrs
Mus musculus [13] = test: Antiinflammatory activity against LPS-induced C57BL/6J mouse model assessed as reduction in Cxcl2 expression at 30 mg/kg, po preincubated for 1 hr followed by LPS stimulation and measured after 8 hrs by qPCR analysis; type: functional, organism-based; conditions: time 9.0 hrs
[14] = AUC in male C57BL6 mouse liver at 10 mg/kg, ip measured up to 24 hrs by LC-MS/MS analysis; type: ADME, organism-based; conditions: in vivo
[15] = molecular target: Bromodomain-containing protein 2 (Homo sapiens, UniProt P25440); test: Inhibition of his9-tagged BRD2-BD2 (unknown origin) preincubated for 30 mins followed by addition of biotinylated peptide and measured after 30 mins by Alphascreen assay
[16] = Apparent oral clearance in male C57BL6 mouse plasma at 10 mg/kg, ip measured up to 24 hrs by LC-MS/MS analysis; type: ADME, organism-based
[17] = Metabolic stability in mouse liver microsomes assessed as half life […] measured after 60 mins in presence of NADPH by LC-MS/MS analysis; type: ADME, Microsome
[18] = Cmax in male C57BL6 mouse liver at 10 mg/kg, ip measured up to 24 hrs by LC-MS/MS analysis; type: ADME, organism-based; conditions: in vivo
[19] = Half life in male C57BL6 mouse liver at 10 mg/kg, ip measured up to 24 hrs by LC-MS/MS analysis; type: ADME, organism-based; conditions: for half-life: male, C57BL6, mouse, liver
[20] = molecular target: T1, Bromodomain-containing protein 4; test: Inhibition of his9-tagged BRD4-BD1 (unknown origin) preincubated for 30 mins followed by addition of biotinylated peptide and measured after 30 mins by Alphascreen assay
Mus musculus [21] = test: Antiinflammatory activity against APAP-induced C57BL/6J mouse liver injury model assessed as reduction in Ccl2 expression at 30 mg/kg, po preincubated for 1 hr followed by APAP stimulation and measured after 8 hrs by qPCR analysis; type: functional, organism-based; conditions: time 9.0 hrs
Mus musculus [22] = test: Antiinflammatory activity against LPS-induced C57BL/6J mouse model assessed as reduction in Cxcl1 expression at 30 mg/kg, po preincubated for 1 hr followed by LPS stimulation and measured after 8 hrs by qPCR analysis; type: functional, organism-based; conditions: time 9.0 hrs
TSEC [23] = test: Antiinflammatory activity against LPS induced mouse TSEC cells assessed as inhibition of CXCL1 expression at 0.3 to 5 uM preincubated for 1 hr followed by LPS stimulation and measured after 4 hrs by qPCR analysis; type: functional, cell-based; conditions: dose 0.3-5 µM, time 5.0 hrs
Mus musculus [24] = test: Antiinflammatory activity against APAP-induced C57BL/6J mouse liver injury model assessed as reduction in Cxcl1 expression at 30 mg/kg, po preincubated for 1 hr followed by APAP stimulation and measured after 8 hrs by qPCR analysis; type: functional, organism-based; conditions: time 9.0 hrs
Mus musculus [25] = test: Antiinflammatory activity against APAP-induced C57BL/6J mouse liver injury model assessed as reduction in necrosis at 30 mg/kg, po preincubated for 1 hr followed by APAP stimulation and measured after 12 hrs by H and E staining based analysis; type: functional, organism-based
Mus musculus [26] = test: Antiinflammatory activity against APAP-induced C57BL/6J mouse liver injury model assessed as reduction in Ly6G expression at 30 mg/kg, po preincubated for 1 hr followed by APAP stimulation and measured after 8 hrs by qPCR analysis; type: functional, organism-based; conditions: time 9.0 hrs
Mus musculus [27] = test: Antiinflammatory activity against LPS-induced C57BL/6J mouse model assessed as reduction in goblet cell in small intestine at 30 mg/kg, po preincubated for 1 hr followed by LPS stimulation and measured after 8 days by alcian blue staining based analysis; type: functional, organism-based; conditions: time 9.0 hrs
[28] = Cytotoxicity against mouse TSEC cells at 10 uM measured after 4 hrs by XTT assay; type: toxicity, cell-based
[29] = mouse, megakaryocyte cells (CFU-MK colony formation)
[30] = male, C57BL6, mouse, plasma, read-out: CL/F (converted)
[31] = mouse, in vivo, ip, 10 mg/kg, 24 h

Chain of Bromodomain-containing protein 2 (P25440 whole entry): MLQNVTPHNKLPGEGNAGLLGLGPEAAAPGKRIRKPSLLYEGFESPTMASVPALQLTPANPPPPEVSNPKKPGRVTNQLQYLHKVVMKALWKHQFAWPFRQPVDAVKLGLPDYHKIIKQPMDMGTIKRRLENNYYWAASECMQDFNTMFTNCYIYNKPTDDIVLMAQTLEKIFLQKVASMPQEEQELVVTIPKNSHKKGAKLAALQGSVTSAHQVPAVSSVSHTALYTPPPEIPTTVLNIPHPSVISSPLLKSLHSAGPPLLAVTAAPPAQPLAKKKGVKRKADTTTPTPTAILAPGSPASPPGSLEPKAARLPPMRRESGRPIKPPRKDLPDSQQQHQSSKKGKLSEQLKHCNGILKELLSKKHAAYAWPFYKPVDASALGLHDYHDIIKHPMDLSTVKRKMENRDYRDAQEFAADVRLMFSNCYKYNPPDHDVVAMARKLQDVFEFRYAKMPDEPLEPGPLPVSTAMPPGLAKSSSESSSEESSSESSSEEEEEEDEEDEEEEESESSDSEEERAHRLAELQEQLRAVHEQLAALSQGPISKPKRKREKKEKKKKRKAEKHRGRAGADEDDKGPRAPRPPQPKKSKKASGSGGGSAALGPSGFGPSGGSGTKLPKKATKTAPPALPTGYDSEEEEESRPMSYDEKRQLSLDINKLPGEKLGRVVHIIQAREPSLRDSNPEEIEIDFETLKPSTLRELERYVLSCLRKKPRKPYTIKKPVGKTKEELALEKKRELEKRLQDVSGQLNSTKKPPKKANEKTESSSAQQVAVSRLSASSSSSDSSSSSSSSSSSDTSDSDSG

CCNC(=O)c1cc2c(-c3cc(C(C)(C)O)ccc3Oc3c(C)cc(F)cc3C)cn(C)c(=O)c2[nH]1 [ABBV-744]
EC50 [1, 29]: 3 nM

Cc1ccc(C(C)C)cc1Oc1nccc(-c2c(-c3ccc(C(F)(F)F)cc3)ncn2C2CCN(CCO)CC2)n1
Ki [2]: 936 nM | EC50 [3]: 2450 nM | Activity (Mus musculus [4]): Active; Compound Showed No Significant Reduction Compared To I-Bet151 And Compound 3(Dw34) | Activity [5]: inactive | AUC at 24 h [6]: 4.04 µM·h | inhibition [7]: 36% | IC50 [8]: > 10000 nM | EC50 ([1]; megakaryocyte): 1830 nM | Activity [9]: Non-toxic | Activity (TSEC [10]): Active | Cmax [11]: 1050 nM | Activity (Mus musculus [12]): inactive | Activity (Mus musculus [13]): Active; Compound Showed No Significant Reduction Compared To I-Bet151 And Compound 3(Dw34) | AUC [14]: 138 nmol·h/g | IC50 [15]: > 10000 nM | CL/F [16, 30]: 65 mL/min/kg | half-life [17]: 1.29 h | Cmax [18]: 38.9 nmol/g | half-life [19]: 3.4 h | IC50 [20]: 111 nM | Activity (Mus musculus [21]): Active | Activity (Mus musculus [22]): Active; Compound Showed No Significant Reduction Compared To I-Bet151 And Compound 3(Dw34) | Activity (TSEC [23]): Active | Activity (Mus musculus [24]): Active | Activity (Mus musculus [25]): Active | Activity (Mus musculus [26]): inactive

COc1cc2c(cc1-c1c(C)noc1C)ncc1[nH]c(=O)n([C@H](C)c3ccccn3)c12
Activity (Mus musculus [4]): Active | Activity [5]: Active | Activity (Mus musculus [27]): Active | EC50 ([1]; megakaryocyte): 1280 nM | Activity [9]: Non-toxic | Activity (Mus musculus [12]): Active | Activity (Mus musculus [13]): Active | Activity (Mus musculus [21]): inactive | Activity (Mus musculus [22]): Active | Activity (Mus musculus [24]): Active | Activity (Mus musculus [25]): inactive | Activity (Mus musculus [26]): Active

Cc1cc(C)cc(Oc2cccc(-c3c(C)nnn3C3CCN(CCN(C)C)CC3)n2)c1
Activity (Mus musculus [4]): Active; Compound Showed No Significant Reduction Compared To I-Bet151 And Compound 3(Dw34) | Activity [5]: inactive | AUC at 24 h [6]: 0.64 µM·h | Activity (Mus musculus [27]): Active | EC50 ([1]; megakaryocyte): 90 nM | Activity [9]: Non-toxic | Activity (TSEC [10]): Active | Cmax [11]: 430 nM | Activity (Mus musculus [12]): Active | Activity (Mus musculus [13]): Active; Compound Showed No Significant Reduction Compared To I-Bet151 And Compound 3(Dw34) | AUC [14]: 2.65 nmol·h/g | CL/F [16, 30]: 470 mL/min/kg | Cmax [18]: 3.69 nmol/g | half-life [19]: 2.3 h | Activity (Mus musculus [21]): Active | Activity (Mus musculus [22]): Active; Compound Showed No Significant Reduction Compared To I-Bet151 And Compound 3(Dw34) | Activity (TSEC [23]): Active | Activity (Mus musculus [24]): Active | Activity (Mus musculus [25]): Active | Activity (Mus musculus [26]): Active

O=C(Nc1ccc(C(F)(F)F)cc1)Nc1ccc(S(=O)(=O)N2CCC[C@H]2CN2CCOCC2)cc1
IC50 [15]: > 50000 nM

CC(=O)Nc1c(F)cc(C(=O)N[C@H]2CC[C@H](O)CC2)cc1O[C@@H](C)c1ccccc1 [GSK046]
EC50 ([1]; megakaryocyte): 380 nM | Activity [9]: Non-toxic | Activity (TSEC [10]): Active; Compound Is Less Effective Than I-Bet151 And Compound 3 | Activity (Mus musculus [12]): inactive | IC50 [15]: 49 nM | Activity (Mus musculus [21]): inactive | Activity (Mus musculus [25]): Active

CCS(=O)(=O)Nc1ccc(Oc2ccc(F)cc2F)c(-c2cn(C)c(=O)c3[nH]ccc23)c1 [MIVEBRESIB]
EC50 [1, 29]: 645 nM

Cc1ccc(C(C)C)cc1Oc1nccc(-c2c(-c3ccc(C(F)(F)F)cc3)ncn2C2CCNCC2)n1
Activity [28]: Toxic | Activity (Mus musculus [4]): Active | AUC [6, 31]: 40.2 µM·h | Activity (Mus musculus [27]): Active | EC50 ([1]; megakaryocyte): 670 nM | Activity (TSEC [10]): Active | Cmax [11]: 1800 nM | Activity (Mus musculus [12]): Active | Activity (Mus musculus [13]): Active | AUC [14]: 1402 nmol·h/g | CL/F [16, 31]: 418 mL/min/kg | half-life [17]: 3.45 h | Cmax [18]: 137 nmol/g | t1/2 [19, 31]: 6.8 h | Activity (Mus musculus [21]): Active | Activity (Mus musculus [22]): Active | Activity (TSEC [23]): Active | Activity (Mus musculus [24]): Active | Activity (Mus musculus [25]): Active | Activity (Mus musculus [26]): Active
